Reference: US6713665B2, “Maize NPR1 promoter and methods of use in plant gene expression” (Pioneer Hi-Bred International, Inc., priority 1999, dated 2004)

Tested on: PR1#81::GUS
Experiment: Effects of defense elicitors on PR1#81::GUS expression in bombarded GS3 immature embryos
Type: cell-based, maize
Details: 1 mM salicylic acid or 0.1 mM jasmonic acid, 20-24 h; for PR1#81::GUS expression in the absence of exogenous NPR1: PR1#81::GUS alone; for PR1#81::GUS expression in the presence of exogenous NPR1: co-bombarded with Ubi::NPR1
Experimental: To evaluate the effects of defense elicitors on PR1#81::GUS expression with or without overexpression of NPR1, three experiments with a total of five replications were performed. GS3 immature embryos were bombarded with either PRI#81::GUS alone or in combination with Ubi::NPR1. Twenty-four hours after bombardment the embryos were treated with either 50 µg/ml of chitosan, 1 mM salicylic acid, or 0.1 mM jasmonic acid diluted in liquid osmotic medium. The embryos were then cultured at 28° C. for twenty to twenty-four hours before the histochemical GUS staining at 37° C. Visual observation of blue spots by histochemical GUS staining was used for interpretation of the transient assay results.

SMILES	PR1#81::GUS expression in the absence of exogenous NPR1	PR1#81::GUS expression in the presence of exogenous NPR1
CC/C=C\C[C@H]1C(=O)CC[C@@H]1CC(=O)O [jasmonic acid]	suppressed	suppressed
O=C(O)c1ccccc1O [salicylic acid]	up regulated	up regulates
